Reference: PMC6478789, “A chemical toolbox for the study of bromodomains and epigenetic signaling” (Nature Communications, 2019)

How the values were obtained:
Test in all cases: Temperature shift assay (non-BRD reader domains)
Format in all cases: binding
Conditions in all cases: 10µM compound
FXR1 = FXR1 (Homo sapiens, UniProt P51114)
Experimental: (§1) Temperature shift assays have been described by Fedorov et al.[46]. Recombinant protein domains (bromodomain or kinases) at a concentration of 2 μM in 10 mM HEPES, pH 7.5, and 500 mM NaCl were mixed with 10 μM of chemical probes. Temperature-dependent protein unfolding profiles were measured using a Real-Time PCR Mx3005p machine (Stratagene).
(§2) Wu et al., Supplementary figures and tables 14
(§3) Supplementary Table 3: Selectivity screening data (non-BRD reader domains):
(§4) Temperature shift assay data of BRD probes screened against a diver se panel of methyl-lysine
(§5) reader domains. Compounds were screened a concentration of 10 µM. Shown are temperature

TDRD3 = TDRD3 (Homo sapiens, UniProt Q9H7E2)
Sequence of TDRD3 (Q9H7E2 555-615 limits assumed, species assumed): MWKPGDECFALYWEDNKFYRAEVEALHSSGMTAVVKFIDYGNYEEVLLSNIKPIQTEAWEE
Experimental: as §1, §2, §3, §4, §5

BRPF3 = BRPF3 (Homo sapiens, UniProt Q9ULD4)
Sequence of BRPF3 (Q9ULD4 1076-1159 limits assumed, species assumed): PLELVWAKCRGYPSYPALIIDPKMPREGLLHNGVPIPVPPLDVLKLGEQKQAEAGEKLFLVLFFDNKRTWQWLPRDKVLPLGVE
Experimental: as §1, §2, §3, §4, §5

53BP1 = 53BP1 (Homo sapiens, UniProt Q12888)
Sequence of 53BP1 (Q12888 1484-1603 limits assumed, species assumed): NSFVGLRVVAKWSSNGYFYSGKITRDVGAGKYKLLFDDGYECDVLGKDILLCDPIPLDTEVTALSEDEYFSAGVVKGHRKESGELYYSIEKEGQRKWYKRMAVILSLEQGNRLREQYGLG
Experimental: as §1, §2, §3, §4, §5

WDR5 = WDR5 (Homo sapiens, UniProt P61964)
Experimental: as §1, §2, §3, §4, §5

RBBP1 = system: RBBP1
Experimental: as §1, §2, §3, §4, §5

EED = EED (Homo sapiens, UniProt O75530)
Sequence of EED (O75530 whole entry, species assumed): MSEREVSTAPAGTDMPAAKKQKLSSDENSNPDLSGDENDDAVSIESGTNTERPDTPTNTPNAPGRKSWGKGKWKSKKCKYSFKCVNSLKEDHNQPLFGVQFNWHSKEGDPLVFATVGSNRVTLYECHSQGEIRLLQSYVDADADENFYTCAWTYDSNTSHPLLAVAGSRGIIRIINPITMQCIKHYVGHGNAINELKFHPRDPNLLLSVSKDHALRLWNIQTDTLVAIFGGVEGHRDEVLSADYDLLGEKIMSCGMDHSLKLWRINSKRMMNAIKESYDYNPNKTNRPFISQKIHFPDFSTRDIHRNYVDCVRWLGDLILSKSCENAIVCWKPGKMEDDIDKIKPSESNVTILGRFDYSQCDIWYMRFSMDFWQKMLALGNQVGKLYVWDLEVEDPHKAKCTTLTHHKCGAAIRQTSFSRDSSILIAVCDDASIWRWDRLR
Experimental: as §1, §2, §3, §4, §5

UHRF1 = molecular target: T1, UHRF1 (Homo sapiens, UniProt Q96T88)
T1 sequence (Q96T88 126-285 limits assumed): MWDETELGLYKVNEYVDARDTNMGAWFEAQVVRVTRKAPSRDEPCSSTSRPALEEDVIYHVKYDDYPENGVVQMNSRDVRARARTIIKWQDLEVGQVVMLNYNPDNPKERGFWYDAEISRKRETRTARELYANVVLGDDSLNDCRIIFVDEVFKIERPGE
Experimental: as §1, §2, §3, §4, §5

SND1 = molecular target: T2, SND1 (Homo sapiens, UniProt Q7KZF4)
T2 sequence (Q7KZF4 729-787 limits assumed): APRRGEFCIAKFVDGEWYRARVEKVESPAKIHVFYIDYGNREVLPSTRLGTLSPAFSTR
Experimental: as §1, §2, §3, §4, §5

Sequence of FXR1 (P51114 2-132 limits assumed, species assumed): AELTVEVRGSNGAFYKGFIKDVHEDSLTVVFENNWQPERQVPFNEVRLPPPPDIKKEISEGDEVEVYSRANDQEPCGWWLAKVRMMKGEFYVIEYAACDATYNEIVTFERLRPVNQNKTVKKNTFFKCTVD

Row | Compound | Tm (C) 10µM, temperature shift (FXR1) [Kelvin] | Tm (C) 10µM, temperature shift (TDRD3) [Kelvin] | Tm (C) 10µM, temperature shift (BRPF3) [Kelvin] | Tm (C) 10µM, temperature shift (53BP1) [Kelvin] | Tm (C) 10µM, temperature shift (WDR5) [Kelvin] | Tm (C) 10µM, temperature shift (EED) [Kelvin] | Tm (C) 10µM, temperature shift (UHRF1) [Kelvin] | Tm (C) 10µM, temperature shift (SND1) [Kelvin] | Tm (C) 10µM, temperature shift (RBBP1) [Kelvin]
1 | Cc1cc2c(cc1N1C(=O)c3cccc4c(CCCO)ccc(c34)C1=O)n(C)c(=O)n2C [BAY-299] | 0.8 | -1.4 | 1.5 | 0.3 | 0.2 |  |  |  | -1.0
2 | Cc1c(NC(=O)c2cc(C(N)=O)nc3cc(F)ccc23)c(C(F)(F)F)nn1Cc1ccc(C(C)(C)C)cc1 [BAY-588] | -1.2 | -5.3 |  | -2.3 | -7.3 | -0.5 | -0.4 | -1.0 | -0.1
3 | COc1cc(Cl)c(C(=O)N[C@@H](CN[C@H]2CC[C@@H](N)CC2)Cc2ccc(C#N)cc2)cc1-c1ccc(CN[C@H](C)c2ccc(C)cc2)o1 [BAY-850] | -1.7 | -1.8 | -0.4 | -0.7 | 0.2 |  | -0.3 | -1.6 | -1.0
4 | Cc1c(NC(=O)c2cc(C(N)=O)nc3cc(F)ccc23)c(C(F)(F)F)nn1Cc1ccc(C#N)cc1 [BAY-876] | 0.8 | -1.0 | -0.3 | 0.0 | 0.4 | -0.7 | -0.2 | -0.9 | -0.3
5 | Cc1nnc2c3ccccc3c(N[C@@H](C)[C@H](c3ccccc3)N(C)C)nn12 [L-Moses] | 0.3 | -0.9 | 1.0 |  | 0.5 | -0.3 |  | -1.0 | -0.4
6 | CN(C)CCCOc1ccc(-c2cc(NCCCn3cccn3)nc(S(C)(=O)=O)n2)cc1 [TP-238] | 0.4 | -0.7 | 0.2 | 0.4 | 0.2 | -0.3 | 0.0 | -0.5 | -0.4

Continued, in another order:

Row | Tm (C) 10µM, temperature shift (FXR1) [Kelvin] | Tm (C) 10µM, temperature shift (TDRD3) [Kelvin] | Tm (C) 10µM, temperature shift (BRPF3) [Kelvin] | Tm (C) 10µM, temperature shift (53BP1) [Kelvin] | Tm (C) 10µM, temperature shift (WDR5) [Kelvin] | Tm (C) 10µM, temperature shift (EED) [Kelvin] | Tm (C) 10µM, temperature shift (UHRF1) [Kelvin] | Tm (C) 10µM, temperature shift (SND1) [Kelvin] | Compound | Tm (C) 10µM, temperature shift (RBBP1) [Kelvin]
7 | 0.3 | -0.6 | -0.3 | -0.1 | 0.2 | -0.7 | -0.2 | -1.0 | CN1C[C@H](Nc2cnn(C)c(=O)c2Br)C[C@H](c2ccccc2)C1 [GSK4027] | -0.7
8 | 0.4 | -0.6 | -0.2 | -0.1 | 0.2 | -0.4 | -0.2 | -0.5 | CO[C@H]1CNC[C@@H](OCC2CCC(F)(F)CC2)[C@@H]1Nc1ncc(-c2cncc(C)c2)c2cc(C)c(=O)[nH]c12 [GSK8814] | -0.1
